“Also recorded” adds a separate entry of the source.
Tests used:
[1] = system: autophagy in mice tissues; test: Autophagy induction in tissues of fed mice (LC3 lipidation, p62, GFP-LC3 dots); type: in vivo
Procedure: (§1) C57BL/6 mice (Charles River Laboratory, Lentilly, France) were bred and maintained according to both the FELASA and the Animal Experimental Ethics Committee Guidelines (Val de Marne, France). Mice were housed in a temperature-controlled environment with 12 h light/dark cycles and received food and water ad libitum. For HC-related experiments, mice were injected intraperitoneally with a single 100 mg/kg dose and 6 h later were sacrificed and tissues were immediately frozen in liquid nitrogen. For DCA- and DMKG-related experiments, mice were subjected to 24 h starvation and injected intraperitoneally each 8 h with a 100 mg/kg of either DCA or DMKG solution prepared in PBS. After 24 h of starvation, mice were sacrificed and tissues were immediately frozen in liquid nitrogen after extraction and homogenized two cycles for 20 s at 5,500 rpm using Precellys 24 tissue homogenator (Bertin Technologies, Montigny-le-Bretonneux, France) in a 20 mM Tris buffer (pH 7.4) containing 150 mM NaCl, 1% Triton X-100, 10 mM EDTA and Complete® protease inhibitor cocktail (Roche Applied Science). Tissue extracts were then centrifuged at 12,000 g at 4° C. and supernatants were collected. Protein concentration in the supernatants was evaluated by the bicinchoninic acid technique (BCA protein assay kit, Pierce Biotechnology, Rockford, Ill.). For hydroxycitrate-related weight-loss experiments, autophagy-deficient Atg4b^−/− mice were used. Atg4b^−/− mice have been previously described (Mariño et al., 2010). For HC-, spermidine-, and resveratrol-related experiments (tumour growth) mice were intraperitoneally injected with respectively 100 mg/kg, 50 mg/kg and 100 mg/kg doses at day 8 and day 9. At day 9, mice were intraperitoneally injected with 2 mg/kg single dose of Mitoxanthrone. For starvation related experiment (tumour growth) mice were treated as previously described (Fabrizio et. al., 2010).
To avoid post-mortem autophagy induction, dead mice were immediately perfused with 4% paraformaldehyde (w:v in PBS, pH 7.4). Tissues were then harvested and further fixed with the same solution for at least 4 h, followed by treatment with 15% sucrose (w:v in PBS) for 4 h and with 30% sucrose (w:v in PBS) overnight. Tissue samples were embedded in Tissue-Tek OCT compound (Sakura Finetechnical Co. Ltd., Tokyo, Japan) and stored at −70° C. Five μm-thick tissue sections were prepared with a CM3050 S cryostat (Leica Microsystems GmbH, Wetzlar, Germany), air-dried for 1 h, washed in PBS for 5 min, dried at RT for 30 min, and mounted with VECTASHIELD anti-fading medium. In each organ, the number of GFP-LC3 dots was counted in five independent visual fields from at least five mice using a TCS SP2 confocal fluorescence microscope (Leica Microsystems GmbH).
Six weeks old female C57BL/6, Balb/c and nude athymic mice (Harlan Laboratory, Gannat, France) were bred and maintained according to both the FELASA and the Animal Experimental Inserm Ethics Committee Guidelines (project: 2012-69). Mice were housed in a temperature-controlled environment with 12 h light/dark cycles and received food and water ad libitum. For tumor growth experiments, procedures adopted are described as follows: 3×10^5 tumor cells were subcutaneously inoculated; when tumors became palpable (day −1 before chemotherapy), mice were first intraperitoneally injected with 100 mg/kg Potassium Hydroxycitrate, 10 mg/kg Acetylsalicylic Acid, 30 mg/kg SB204990, 30 mg/kg c646, 5 mg/kg Rapamycin, 25 mg/kg Resveratrol, 50 mg/kg Spermidine. At day 0, mice were intraperitoneally injected with the abovementioned compounds and with 5.17 mg/Kg Mitoxanthrone or 5 mg/kg Oxaliplatin. Tumor size was measured every two days. For starvation experiments, mice underwent 48 hour fasting followed by intreperitoneal injection of chemotherapeutics. […]

MCA205 tumor = test: Growth of transplantable tumors with chemotherapy; type: in vivo, mice; conditions: for tumor growth, combined with MTX: immunocompetent wild type mice, agent given before and with mitoxanthrone; for tumor growth, combined with MTX, immunodeficient mice: nu/nu (nude athymic) mice
Procedure: as §1
Six weeks old female C57BL/6, Balb/c and nude athymic mice (Harlan Laboratory, Gannat, France) were bred and maintained according to both the FELASA and the Animal Experimental Inserm Ethics Committee Guidelines (project: 2012-69). Mice were housed in a temperature-controlled environment with 12 h light/dark cycles and received food and water ad libitum. For tumor growth experiments, procedures adopted are described as follows: 3×10^5 tumor cells were subcutaneously inoculated; when tumors became palpable (day −1 before chemotherapy), mice were first intraperitoneally injected with 100 mg/kg Potassium Hydroxycitrate, 10 mg/kg Acetylsalicylic Acid, 30 mg/kg SB204990, 30 mg/kg c646, 5 mg/kg Rapamycin, 25 mg/kg Resveratrol, 50 mg/kg Spermidine. At day 0, mice were intraperitoneally injected with the abovementioned compounds and with 5.17 mg/Kg Mitoxanthrone or 5 mg/kg Oxaliplatin. Tumor size was measured every two days. For starvation experiments, mice underwent 48 hour fasting followed by intreperitoneal injection of chemotherapeutics. For autophagy induction study, 6 hours after CRMs administration, mice were sacrificed and tissues were snap-frozen in liquid nitrogen after extraction and homogenized two cycles for 20 s at 5,500 rpm using Precellys 24 tissue homogenator (Bertin Technologies, Montigny-le-Bretonneux, France) in a 20 mM Tris buffer (pH 7.4) containing 150 mM NaCl, 1% Triton X-100, 10 mM EDTA and Complete® protease inhibitor cocktail (Roche Applied Science, Penzberg, Germany). Tissue extracts were then centrifuged at 12,000 g at 4° C. and supernatants were collected. Protein concentration in the supernatants was evaluated by the bicinchoninic acid technique (BCA protein assay kit, Pierce Biotechnology, Rockford, US.

[2] = system: U2OS cells stably expressing GFP-LC3; test: Microinjection of AcCoA or CoA into the cytoplasm; type: cell-based, human; conditions: 10 mM injected; for Hydroxycitrate-induced autophagy after microinjection: HC-treated cells
Procedure: For microinjection, U2Os cells were cultured overnight on glass coverslips before injection. The setup for the injection itself was as follows: 10 mM CoA or AcCoA were injected in PBS for 0.2 s under a pressure of 150 hPa, using a Microinjector equipment (Eppendorf, Hamburg, Germany). Then cells were culture for 3 h in the presence of 100 nM bafilomycin A1 (BafA1) and fixed for fluorescence microscopy, as described below.
For microinjection, U2OS cells were cultured overnight on culture dishes before injection. The setup for the injection itself was as follows: 10 mM CoA or AcCoA in PBS were injected for 0.2 s under an injection pressure of 150 hPa and a compensatory pressure of 9 hPa, using a microinjector (Eppendorf, Hamburg, Germany). Before injection, cells were cultured for 2 h in the presence of 100 nM bafilomycin A1 (BafA1) in control medium and in presence of 20 mm Hydroxycitrate. One hour after injection, cells were fixed with 4% PFA and analyzed by fluorescent and automated videomicroscopy.

cellular ATP levels = test: Cellular ATP levels; type: cell-based; conditions: starved cells
[3] = system: MPA/DMBA induced mammary tumors; test: MPA/DMBA induced mammary tumor; type: in vivo, mice; conditions: mouse, in vivo
Procedure: Six-week-old female Balb/c mice underwent surgical implantation of slow-release MPA (Medroxyprogesterone Acetate) pellets (50 mg, 90-day release; Innovative Research of America) subcutaneously on the right flank. 200 uL of 5 mg/mL DMBA (Dimethylbenzantracene)
(Sigma Aldrich) dissolved in Corn Oil was administered by oral gavage six times during 8 weeks. Tumor formation was monitored by palpation. When tumors became palpable, mice were assigned to following groups of treatment: PBS, HCA, MTX, MTX plus HCA and the MTX plus HCA upon CD4/CD8 lymphocytes depletion. Combinatorial groups were treated as previously described, whereas for CD4/CD8 depletion, mice were intraperitoneally administrated with 500 μg of anti CD4 and CD8 antibodies the day before the onset of the treatment.

[4] = system: intracellular amino acid levels; test: Intracellular amino acid levels by mass spectrometry; type: cell-based; conditions: starved cells
Procedure: Profiling of intracellular metabolites was performed on a RRLC 1260 system (Agilent Technologies) coupled to a QTOF 6520 (Agilent) equipped with an electrospray source operating in positive ion and full scan mode from 100 to 1000 Da. The gas temperature was set at 350° C. with a gas flow of 10 L·min^1. The capillary voltage was set at 4.0 kV, and the fragmentor at 150 V. Two reference masses were used to maintain the mass accuracy during analysis: 121.050873 (C5H4N4) and 922.009798 (C18H18O6N3P3F24). Five μL of sample were injected on a 150 mm×2.1 mm 3.5 μm SB Aq column (Agilent) with a pre-column 30 mm×2.1 mm 3.5 μm Eclipse plus (Agilent). The gradient mobile phase consisted of water with 10 mmol/L of ammonium acetate and 0.01% of acetic acid (A) and acetonitrile (B). Initial composition of mobile phase was 2% of B, followed by an increase to 95% of B in 10 min. The flow rate was set to 0.3 mL·min^−1.

[5] = chronic treatment; cited from earlier work

## Oc1ccc(C=Cc2cc(O)cc(O)c2)cc1 [resveratrol]
[1]
  autophagy in vivo (LC3 lipidation, p62, GFP-LC3): elicits autophagy in mice muscle after 6 hours
MCA205 tumor
  tumor growth, combined with MTX: capable to recapitulate the positive combinatorial effect of starvation; also recorded: HC could be replaced
  tumor growth, combined with MTX, immunodeficient mice: failed
MCA205 tumor; listed as Resveratrol
  tumor growth, combined with MTX: mimics the effects of 48 h fasting in delaying subcutaneous MCA205 tumor growth

## CC(=O)SCCNC(=O)CCNC(=O)[C@H](O)C(C)(C)COP(=O)(O)OP(=O)(O)OC[C@H]1O[C@@H](n2cnc3c(N)ncnc32)[C@H](O)[C@@H]1OP(=O)(O)O [AcCoA, acetyl-coenzyme A]
[2]
  Hydroxycitrate-induced autophagy after microinjection: suppressed by microinjection of AcCoA
[2]; listed as Acetyl CoA
  Hydroxycitrate-induced autophagy after microinjection: inhibits Hydroxycitrate-induced autophagy
[2]; starved cells
  cytoplasmic protein acetylation after microinjection: increased the levels of cytoplasmic protein acetylation
  starvation-induced autophagic flux after microinjection: reduced starvation-induced autophagic flux

## Cn1cnc(N)c2ncnc1-2 [3-MA, 3-methyladenine]
Cellular ATP levels
  cellular ATP levels in starved cells: similarly reduced ATP content

## O=C1c2c(O)ccc(O)c2C(=O)c2c(NCCNCCO)ccc(NCCNCCO)c21 [MTX, mitoxanthrone]
[3]
  mammary tumor growth, monotherapy: had little effect

## NC(=O)CC[C@H](N)C(=O)O [glutamine]
[4]
  intracellular amino acid levels: did increase cellular glutamate levels

## NCCCCNCCCN [spermidine]
[1]
  autophagy in vivo (LC3 lipidation, p62, GFP-LC3): elicits autophagy in mice muscle after 6 hours
MCA205 tumor
  tumor growth, combined with MTX: capable to recapitulate the positive combinatorial effect of starvation; also recorded: HC could be replaced
  tumor growth, combined with MTX, immunodeficient mice: failed
MCA205 tumor; listed as Spermidine
  tumor growth, combined with MTX: mimics the effects of 48 h fasting in delaying subcutaneous MCA205 tumor growth; also recorded: can enhance chemotherapy efficacy
[5]
  health and life spans of mice: extends the health and life spans of mice

From patent publication US11040052B2, “Methods and pharmaceutical compositions for modulating autophagy in a subject in need thereof” (INSERM (INSTITUT NATIONAL DE LA SANTE ET DE LA RECHERCHE …, priority 2013, dated 2021)
